This assay deals with T1, glutathione peroxidase 1 (GPx-1) (Bos taurus, UniProt P00435).
T1 sequence (P00435 1-205): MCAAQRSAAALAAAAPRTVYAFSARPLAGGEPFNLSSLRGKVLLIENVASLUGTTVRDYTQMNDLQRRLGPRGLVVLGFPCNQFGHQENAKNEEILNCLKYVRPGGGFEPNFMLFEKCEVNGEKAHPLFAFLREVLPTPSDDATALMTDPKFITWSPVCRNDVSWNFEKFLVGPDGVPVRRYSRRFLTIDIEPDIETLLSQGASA
The assay can be described thus: immobilized enzyme inactivation, GR-coupled NADPH assay at […] nm after wash-out. Type of assay: biochemical.

By IC50 is commonly meant the concentration needed to halve the response being measured. With `CCN1C(=O)C=CC1=O` [NEM, N-ethylmaleimide], half-maximal inhibition (IC50) required 8.77 mM.
